Where a name gives a salt, the structure may show the parent alone.
Columns and labels:
[1] = Solid-form physical stability at ambient conditions / humidity; assay type: physicochemical
[2] = Slurry of the tromethamine salt in aqueous media (disproportionation); assay type: physicochemical

For `O=C(O)c1ccnc(N2CC(O)(c3ccc(OCc4c(-c5c(Cl)cccc5Cl)noc4C4CC4)cc3Cl)C2)c1`, the “time to full conversion to Formula I tromethamine salt hydrate I” value ([1]; ambient conditions, depending on % RH) was at most 1 h.

With `O=C(O)c1ccnc(N2CC(O)(c3ccc(OCc4c(-c5c(Cl)cccc5Cl)noc4C4CC4)cc3Cl)C2)c1` [Formula I tromethamine salt Form II] the “moisture absorption and form conversion” value ([1]; about >20% RH) was “rapidly absorbs moisture at about >20% RH and converts to Formula I tromethamine salt hydrate II”.

In the case of `O=C(O)c1ccnc(N2CC(O)(c3ccc(OCc4c(-c5c(Cl)cccc5Cl)noc4C4CC4)cc3Cl)C2)c1` [Formula I tromethamine salt MTBE solvate], the “solid form conversion at ambient conditions” value (“solid form conversion” for short) ([1]; ambient conditions) is reported as “converted to disordered material at ambient conditions”.

In the case of `O=C(O)c1ccnc(N2CC(O)(c3ccc(OCc4c(-c5c(Cl)cccc5Cl)noc4C4CC4)cc3Cl)C2)c1` [Formula I tromethamine salt ethanol solvate], the “solid form conversion” value ([1]; ambient conditions) is reported as “converted to Formula I tromethamine salt hydrate I at ambient conditions”.

With `O=C(O)c1ccnc(N2CC(O)(c3ccc(OCc4c(-c5c(Cl)cccc5Cl)noc4C4CC4)cc3Cl)C2)c1` [Formula I tromethamine salt methanol solvate I] the “solid form conversion” value ([1]; ambient conditions) was “loses methanol very rapidly at ambient conditions and converts to tromethamine salt methanol solvate III”.

With `O=C(O)c1ccnc(N2CC(O)(c3ccc(OCc4c(-c5c(Cl)cccc5Cl)noc4C4CC4)cc3Cl)C2)c1` [Formula I tromethamine salt] the “salt stability (disproportionation to zwitterion Form II)” value ([2]; MeOH/water (0.4-0.6 water activity)) was “disproportionation” and the “salt stability in slurry (disproportionation to zwitterion hydrate)” value ([2]; slurry in water) was “disproportionation of the salt”.

Reference: US12102625B2, “Solid forms of FXR agonists” (Gilead Sciences, Inc., priority 2019, dated 2024)
